Target: T1, Bovine Serum Albumin (BSA) (Bos taurus, UniProt P02769)
T1 construct: gene ALB
Test: spectrofluorometric titration (tryptophan fluorescence quenching, double-log Stern-Volmer) at […] and […] °C; Kb given is at […] °C
Type: binding
Conditions: read-out: spectrofluorometric titration (tryptophan fluorescence quenching, double-log Ste) (converted)

T1 sequence (P02769 25-607): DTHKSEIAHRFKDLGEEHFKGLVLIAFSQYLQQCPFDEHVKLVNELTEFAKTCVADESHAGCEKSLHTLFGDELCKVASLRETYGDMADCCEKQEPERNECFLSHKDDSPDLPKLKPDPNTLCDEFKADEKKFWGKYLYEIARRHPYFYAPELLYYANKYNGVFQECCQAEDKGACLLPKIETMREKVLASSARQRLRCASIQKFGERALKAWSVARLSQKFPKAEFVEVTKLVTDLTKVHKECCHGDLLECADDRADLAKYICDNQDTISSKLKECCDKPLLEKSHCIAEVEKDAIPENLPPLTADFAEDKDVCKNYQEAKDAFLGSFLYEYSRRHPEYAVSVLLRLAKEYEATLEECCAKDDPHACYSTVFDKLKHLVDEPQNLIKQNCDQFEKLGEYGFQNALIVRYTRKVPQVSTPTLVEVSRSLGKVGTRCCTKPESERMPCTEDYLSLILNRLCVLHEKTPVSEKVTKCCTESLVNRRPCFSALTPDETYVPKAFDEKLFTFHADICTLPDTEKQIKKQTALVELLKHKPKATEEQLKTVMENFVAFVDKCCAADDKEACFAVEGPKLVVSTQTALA

Cc1cc(=O)n(CCC(=O)[O][Sn]([CH3])([CH3])[CH3])c2ccccc12 [Me3SnL, (3-(4-methyl-2-oxoquinolin-1(2H)-yl)propanoato)trimethyltin(IV)] was tested, and the Kd was 422 nM.
